Some results are limits rather than exact numbers.

Here are results for 15 compounds from US20260125421A1, “ANTIVIRAL COMPOUNDS” (Hoffmann-La Roche Inc., priority 2022, published 2026).

What all share (test): biochemical
In one experiment the target is T1, SARS-CoV-2 3CL^pro (Severe acute respiratory syndrome coronavirus 2, UniProt P0DTD1).
T1 construct: […]; made in house; host or cells: Escherichia coli

In another experiment the target is T2, HCoV-229E 3CL^pro (Human coronavirus 229E, UniProt P0C6X1).
T2 construct: […]; made in house; host or cells: E. coli BL21 (DE3)

Another experiment addresses MERS-CoV 3CL^pro (Middle East respiratory syndrome-related coronavirus, UniProt K9N7C7).
The next experiment has as its target SARS-CoV 3CL^pro (Severe acute respiratory syndrome coronavirus, UniProt P0C6X7).

Sequence of MERS-CoV 3CL^pro (K9N7C7 3248-3553): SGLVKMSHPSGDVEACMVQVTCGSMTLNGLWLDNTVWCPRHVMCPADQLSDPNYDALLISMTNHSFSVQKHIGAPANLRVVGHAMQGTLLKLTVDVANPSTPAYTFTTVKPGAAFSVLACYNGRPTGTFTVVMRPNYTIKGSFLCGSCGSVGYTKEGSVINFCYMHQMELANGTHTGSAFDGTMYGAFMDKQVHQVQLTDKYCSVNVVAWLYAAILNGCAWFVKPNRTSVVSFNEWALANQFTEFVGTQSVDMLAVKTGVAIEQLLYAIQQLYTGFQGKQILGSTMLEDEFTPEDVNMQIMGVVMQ
T2 sequence (P0C6X1 2966-3267): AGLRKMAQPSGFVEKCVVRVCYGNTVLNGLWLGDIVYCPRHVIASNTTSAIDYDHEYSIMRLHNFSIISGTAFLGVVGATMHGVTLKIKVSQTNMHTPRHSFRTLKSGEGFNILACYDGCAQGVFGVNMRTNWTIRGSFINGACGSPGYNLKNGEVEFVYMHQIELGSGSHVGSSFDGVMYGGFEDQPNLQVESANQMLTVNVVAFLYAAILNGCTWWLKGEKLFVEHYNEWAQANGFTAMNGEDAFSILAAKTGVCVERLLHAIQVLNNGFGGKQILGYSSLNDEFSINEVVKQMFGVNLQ

Take `CCC(CC)[C@H](NC(=O)[C@@H](F)Cl)C(=O)N1C[C@@H]2CCC[C@@H]2[C@H]1C(=O)NN(C[C@@H]1CC(C)(C)NC1=O)C(=O)[C@@H](F)Cl` [Example 13, (2S)-N-[(1S)-1-[(3S,3aS,6aR)-3-[[[(2S)-2-chloro-2-fluoro-acetyl]-[[(3S)-5,5-dimethyl-2-oxo-pyrrolidin-3-yl]methyl]amino]carbamoyl]-3,3a,4,5,6,6a-hexahydro-1H-cyclopenta[c]pyrrole-2-carbonyl]-2-ethyl-butyl]-2-chloro-2-fluoro-acetamide]: the IC50 – broadly, the concentration that inhibits the measured activity by half – against SARS-CoV-2 3CL^pro amounted to 0.009 µM; on HCoV-229E 3CL^pro it was 0.401 µM; at MERS-CoV 3CL^pro, 0.263 µM; on SARS-CoV 3CL^pro, 0.011 µM.

`CC1(C)C[C@@H](CN(NC(=O)[C@@H]2[C@H]3CCC[C@H]3CN2C(=O)[C@@H](NC(=O)[C@H](F)Cl)C(C)(C)C)C(=O)[C@H](F)Cl)C(=O)N1` [Example 14, (2R)-N-[(1S)-1-[(3S,3aS,6aR)-3-[[[(2R)-2-chloro-2-fluoro-acetyl]-[[(3S)-5,5-dimethyl-2-oxo-pyrrolidin-3-yl]methyl]amino]carbamoyl]-3,3a,4,5,6,6a-hexahydro-1H-cyclopenta[c]pyrrole-2-carbonyl]-2,2-dimethyl-propyl]-2-chloro-2-fluoro-acetamide]: the IC50 was found to be 0.009 µM on SARS-CoV-2 3CL^pro, 1.27 µM against HCoV-229E 3CL^pro, 1.24 µM on MERS-CoV 3CL^pro and 0.009 µM against SARS-CoV 3CL^pro.

Consider `CC1(C)C[C@@H](CN(NC(=O)[C@@H]2[C@H]3CCC[C@H]3CN2C(=O)[C@@H](NC(=O)[C@@H](F)Cl)C(C)(C)C)C(=O)[C@H](F)Cl)C(=O)N1` [Example 15, (2S)-N-[(1S)-1-[(3S,3aS,6aR)-3-[[[(2R)-2-chloro-2-fluoro-acetyl]-[[(3S)-5,5-dimethyl-2-oxo-pyrrolidin-3-yl]methyl]amino]carbamoyl]-3,3a,4,5,6,6a-hexahydro-1H-cyclopenta[c]pyrrole-2-carbonyl]-2,2-dimethyl-propyl]-2-chloro-2-fluoro-acetamide], for which the IC50 against SARS-CoV-2 3CL^pro was 0.011 µM; on HCoV-229E 3CL^pro, 0.589 µM; against MERS-CoV 3CL^pro, 0.488 µM; on SARS-CoV 3CL^pro, 0.012 µM.

Regarding `CC1(C)C[C@@H](CN(NC(=O)[C@@H]2[C@H]3CCC[C@H]3CN2C(=O)[C@@H](NC(=O)[C@H](F)Cl)C(C)(C)C)C(=O)[C@@H](F)Cl)C(=O)N1` [Example 16], the IC50 against SARS-CoV-2 3CL^pro was 0.022 µM; on HCoV-229E 3CL^pro it was greater than 10 µM; on MERS-CoV 3CL^pro it was 6.16 µM; on SARS-CoV 3CL^pro, 0.033 µM.

For the compound `CC1(C)C[C@@H](CN(NC(=O)[C@@H]2[C@H]3CCC[C@H]3CN2C(=O)[C@@H](NC(=O)[C@@H](F)Cl)C(C)(C)C)C(=O)[C@@H](F)Cl)C(=O)N1` [Example 17], the IC50 was determined as 0.016 µM against SARS-CoV-2 3CL^pro, 4.26 µM against HCoV-229E 3CL^pro, 1.87 µM against MERS-CoV 3CL^pro and 0.019 µM at SARS-CoV 3CL^pro.

On to `CCC(CC)[C@H](NC(=O)C(F)F)C(=O)N1C[C@@H]2CCC[C@@H]2[C@H]1C(=O)NN(C[C@H]1CC(C)(C)NC1=O)C(=O)[C@@H](F)Cl` [Example 18, N-[(1S)-1-[(3S,3aS,6aR)-3-[[[(2S)-2-chloro-2-fluoro-acetyl]-[[(3R)-5,5-dimethyl-2-oxo-pyrrolidin-3-yl]methyl]amino]carbamoyl]-3,3a,4,5,6,6a-hexahydro-1H-cyclopenta[c]pyrrole-2-carbonyl]-2-ethyl-butyl]-2,2-difluoro-acetamide], for which the IC50 at SARS-CoV-2 3CL^pro worked out at 0.012 µM; against HCoV-229E 3CL^pro, 0.332 µM; on MERS-CoV 3CL^pro, 0.345 µM; against SARS-CoV 3CL^pro it was 0.023 µM.

For the compound `CC[C@H](C)[C@H](NC(=O)C1(F)CC1)C(=O)N1C[C@H]2[C@@H]([C@H]1C(=O)NN(C[C@H]1CC(C)(C)NC1=O)C(=O)[C@@H](F)Cl)C2(C)C` [Example 19, N-[(1S,2S)-1-[(1R,2S,5S)-2-[[[(2S)-2-chloro-2-fluoro-acetyl]-[[(3R)-5,5-dimethyl-2-oxo-pyrrolidin-3-yl]methyl]amino]carbamoyl]-6,6-dimethyl-3-azabicyclo[3.1.0]hexane-3-carbonyl]-2-methyl-butyl]-1-fluoro-cyclopropanecarboxamide], the concentration for half-maximal inhibition (IC50) against SARS-CoV-2 3CL^pro was determined as 0.019 µM; at HCoV-229E 3CL^pro it was 0.834 µM; against MERS-CoV 3CL^pro it was 0.553 µM; on SARS-CoV 3CL^pro it was 0.032 µM.

`CC1(C)C[C@@H](CN(NC(=O)[C@@H]2[C@@H]3[C@H](CN2C(=O)[C@@H](NC(=O)[C@H](F)Cl)C(C)(C)C)C3(C)C)C(=O)[C@H](F)Cl)C(=O)N1` [Example 20]: the IC50 on SARS-CoV-2 3CL^pro was found to be 0.024 µM; against HCoV-229E 3CL^pro, 2.02 µM; on MERS-CoV 3CL^pro it was 1.07 µM; on SARS-CoV 3CL^pro it was 0.032 µM.

Turning to `CC1(C)C[C@@H](CN(NC(=O)[C@@H]2[C@@H]3[C@H](CN2C(=O)[C@@H](NC(=O)[C@@H]2CC2(F)F)C(C)(C)C)C3(C)C)C(=O)[C@H](F)Cl)C(=O)N1` [Example 21, (1S)-N-[(1S)-1-[(1R,2S,5S)-2-[[[(2R)-2-chloro-2-fluoro-acetyl]-[[(3S)-5,5-dimethyl-2-oxo-pyrrolidin-3-yl]methyl]amino]carbamoyl]-6,6-dimethyl-3-azabicyclo[3.1.0]hexane-3-carbonyl]-2,2-dimethyl-propyl]-2,2-difluoro-cyclopropanecarboxamide], the IC50 was determined as 0.014 µM at SARS-CoV-2 3CL^pro, 0.778 µM on HCoV-229E 3CL^pro, 0.402 µM against MERS-CoV 3CL^pro and 0.022 µM against SARS-CoV 3CL^pro.

For `CC1(C)C[C@@H](CN(NC(=O)[C@@H]2[C@@H]3[C@H](CN2C(=O)[C@@H](NC(=O)[C@@H](F)Cl)C(C)(C)C)C3(C)C)C(=O)[C@@H](F)Cl)C(=O)N1` [Example 22, (2S)-2-chloro-N-[(1S)-1-[(1R,2S,5S)-2-[[[(2S)-2-chloro-2-fluoro-acetyl]-[[(3S)-5,5-dimethyl-2-oxo-pyrrolidin-3-yl]methyl]amino]carbamoyl]-6,6-dimethyl-3-azabicyclo[3.1.0]hexane-3-carbonyl]-2,2-dimethyl-propyl]-2-fluoro-acetamide], the IC50 at SARS-CoV-2 3CL^pro is 0.031 µM; against HCoV-229E 3CL^pro it was 3.52 µM; against MERS-CoV 3CL^pro it was 1.87 µM; at SARS-CoV 3CL^pro it was 0.048 µM.

In the case of `CC1(C)C[C@@H](CN(NC(=O)[C@@H]2[C@@H]3[C@H](CN2C(=O)[C@@H](NC(=O)[C@@H]2CC2(F)F)C(C)(C)C)C3(C)C)C(=O)[C@@H](F)Cl)C(=O)N1` [Example 23, (1S)-N-[(1S)-1-[(1R,2S,5S)-2-[[[(2S)-2-chloro-2-fluoro-acetyl]-[[(3S)-5,5-dimethyl-2-oxo-pyrrolidin-3-yl]methyl]amino]carbamoyl]-6,6-dimethyl-3-azabicyclo[3.1.0]hexane-3-carbonyl]-2,2-dimethyl-propyl]-2,2-difluoro-cyclopropanecarboxamide], the IC50 on SARS-CoV-2 3CL^pro worked out at 0.054 µM; against HCoV-229E 3CL^pro, 5.43 µM; against MERS-CoV 3CL^pro, 2.08 µM; at SARS-CoV 3CL^pro, 0.085 µM.

In the case of `CC1(C)C[C@H](CN(NC(=O)[C@@H]2[C@@H]3[C@H](CN2C(=O)[C@@H](NC(=O)[C@@H]2CC2(F)F)C(C)(C)C)C3(C)C)C(=O)[C@H](F)Cl)C(=O)N1` [Example 24, (1S)-N-[(1S)-1-[(1R,2S,5S)-2-[[[(2R)-2-chloro-2-fluoro-acetyl]-[[(3R)-5,5-dimethyl-2-oxo-pyrrolidin-3-yl]methyl]amino]carbamoyl]-6,6-dimethyl-3-azabicyclo[3.1.0]hexane-3-carbonyl]-2,2-dimethyl-propyl]-2,2-difluoro-cyclopropanecarboxamide], the IC50 came out at 0.087 µM on SARS-CoV-2 3CL^pro, 2.25 µM on HCoV-229E 3CL^pro, 1.4 µM at MERS-CoV 3CL^pro and 0.177 µM at SARS-CoV 3CL^pro.

As to `CC(C)(C)[C@H](NC(=O)[C@@H]1CC1(F)F)C(=O)N1C[C@@H]2CCC[C@@H]2[C@H]1C(=O)NN(C[C@@H]1CC2(CC2)NC1=O)C(=O)[C@H](F)Cl` [Example 25], the IC50 against SARS-CoV-2 3CL^pro was found to be 0.012 µM; at HCoV-229E 3CL^pro it was 0.04 µM; on MERS-CoV 3CL^pro, 0.062 µM; against SARS-CoV 3CL^pro, 0.014 µM.

As for `CC(C)(C)[C@H](NC(=O)[C@@H]1CC1(F)F)C(=O)N1C[C@@H]2CCC[C@@H]2[C@H]1C(=O)NN(C[C@H]1CC2(CC2)NC1=O)C(=O)[C@H](F)Cl` [Example 26, (1S)-N-[(1S)-1-[(3S,3aS,6aR)-3-[[[(2R)-2-chloro-2-fluoro-acetyl]-[[(6R)-5-oxo-4-azaspiro[2.4]heptan-6-yl]methyl]amino]carbamoyl]-3,3a,4,5,6,6a-hexahydro-1H-cyclopenta[c]pyrrole-2-carbonyl]-2,2-dimethyl-propyl]-2,2-difluoro-cyclopropanecarboxamide], the half-maximal inhibitory concentration (IC50) against SARS-CoV-2 3CL^pro is 0.012 µM; on HCoV-229E 3CL^pro it was 0.045 µM; against MERS-CoV 3CL^pro it was 0.111 µM; against SARS-CoV 3CL^pro, 0.011 µM.

Regarding `C[C@H]1C[C@@H](CN(NC(=O)[C@@H]2[C@H]3CCC[C@H]3CN2C(=O)[C@@H](NC(=O)[C@@H]2CC2(F)F)C(C)(C)C)C(=O)[C@H](F)Cl)C(=O)N1` [Example 27, (1S)-N-[(1S)-1-[(3S,3aS,6aR)-3-[[[(2R)-2-chloro-2-fluoro-acetyl]-[[(3S,5S)-5-methyl-2-oxo-pyrrolidin-3-yl]methyl]amino]carbamoyl]-3,3a,4,5,6,6a-hexahydro-1H-cyclopenta[c]pyrrole-2-carbonyl]-2,2-dimethyl-propyl]-2,2-difluoro-cyclopropanecarboxamide], the IC50 against SARS-CoV-2 3CL^pro is 0.006 µM; at HCoV-229E 3CL^pro, 0.03 µM; on MERS-CoV 3CL^pro, 0.063 µM; against SARS-CoV 3CL^pro, 0.01 µM.
